According to paper PMC7044277 (Nature Communications, 2020):
Values joined by “and” are separate entries in the source; they are usually repeats but may differ in a detail not shown here. Identical values can stand only once.

Legend:
Format in all cases: cell-based
320 non-olfactory GPCRs [1] = molecular target: T1, 320 non-olfactory GPCRs (Homo sapiens, UniProt Q5NUL3)
T1 construct: expressed in transfected cells; host or cells: HTLA cells

320 non-olfactory GPCRs [2] = molecular target: T2, 320 non-olfactory GPCRs (Homo sapiens, UniProt Q86SM5); settings: receptor MRGPRG; replicate values, Fig_4g
T2 construct: expressed in transfected cells; host or cells: HTLA cells
T2 sequence (Q86SM5 whole entry): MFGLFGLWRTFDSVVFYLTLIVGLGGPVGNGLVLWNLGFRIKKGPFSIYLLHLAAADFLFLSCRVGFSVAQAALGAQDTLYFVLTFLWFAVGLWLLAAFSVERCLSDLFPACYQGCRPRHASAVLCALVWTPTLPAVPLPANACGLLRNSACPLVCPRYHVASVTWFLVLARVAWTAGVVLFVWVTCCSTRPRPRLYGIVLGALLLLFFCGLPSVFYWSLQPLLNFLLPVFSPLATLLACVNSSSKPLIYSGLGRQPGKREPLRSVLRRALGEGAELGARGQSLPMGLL

320 non-olfactory GPCRs [3] = molecular target: 320 non-olfactory GPCRs (Homo sapiens, UniProt P47211)
Chain of 320 non-olfactory GPCRs (Homo sapiens, UniProt P47211) (P47211 whole entry): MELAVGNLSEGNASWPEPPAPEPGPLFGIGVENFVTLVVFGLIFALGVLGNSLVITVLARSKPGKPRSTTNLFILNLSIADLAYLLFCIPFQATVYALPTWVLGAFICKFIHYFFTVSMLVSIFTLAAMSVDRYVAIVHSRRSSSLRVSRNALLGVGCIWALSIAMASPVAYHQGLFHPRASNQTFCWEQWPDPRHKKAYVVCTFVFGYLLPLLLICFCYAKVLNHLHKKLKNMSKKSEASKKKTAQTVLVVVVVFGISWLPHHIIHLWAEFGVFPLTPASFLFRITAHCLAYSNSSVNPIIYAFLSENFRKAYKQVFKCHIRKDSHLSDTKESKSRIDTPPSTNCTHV

320 non-olfactory GPCRs [4] = molecular target: T3, 320 non-olfactory GPCRs (Homo sapiens, UniProt Q96G91); settings: receptor P2RY11; replicate values, Fig_4g
T3 construct: expressed in transfected cells; host or cells: HTLA cells
T3 sequence (Q96G91 whole entry): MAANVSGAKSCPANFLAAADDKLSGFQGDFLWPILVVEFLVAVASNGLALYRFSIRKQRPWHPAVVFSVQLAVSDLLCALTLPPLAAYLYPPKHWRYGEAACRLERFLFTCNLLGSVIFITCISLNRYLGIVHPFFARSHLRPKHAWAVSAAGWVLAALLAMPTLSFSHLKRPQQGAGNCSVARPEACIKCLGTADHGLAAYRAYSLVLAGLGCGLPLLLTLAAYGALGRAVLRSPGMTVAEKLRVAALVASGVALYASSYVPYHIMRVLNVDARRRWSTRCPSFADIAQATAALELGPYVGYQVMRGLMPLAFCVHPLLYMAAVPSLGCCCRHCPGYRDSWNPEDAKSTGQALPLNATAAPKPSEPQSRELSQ
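Throughout, for Fold of Basal: compound tested at 1 µM final concentration.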
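Throughout, for GPCRome agonism screen response: fold over basal response of each receptor without drug.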

T1 sequence (Q5NUL3 whole entry): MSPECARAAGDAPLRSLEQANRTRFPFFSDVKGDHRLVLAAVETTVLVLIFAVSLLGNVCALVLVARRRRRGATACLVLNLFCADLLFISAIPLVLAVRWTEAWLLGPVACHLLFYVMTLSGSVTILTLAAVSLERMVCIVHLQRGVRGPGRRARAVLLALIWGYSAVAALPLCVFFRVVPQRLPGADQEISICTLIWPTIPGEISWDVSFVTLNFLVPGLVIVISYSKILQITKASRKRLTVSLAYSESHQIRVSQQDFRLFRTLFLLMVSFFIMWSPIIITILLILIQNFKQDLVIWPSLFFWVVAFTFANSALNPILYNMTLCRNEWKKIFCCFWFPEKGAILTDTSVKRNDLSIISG

SMILES: CCOc1cccc2cc(C(C)NCC3(O)CCCCC3)oc12 (stereo not shown) [O4LE6]
- Fold of Basal (320 non-olfactory GPCRs [1]): 1.4501 and 0.8868 and 0.9227 and 1.231
- GPCRome agonism screen response (320 non-olfactory GPCRs [2]): 0.767 and 0.7489 and 0.544 and 0.824
- Fold of Basal (320 non-olfactory GPCRs [3]): 0.9505 and 0.7559 and 1.028 and 0.7017
- GPCRome agonism screen response (320 non-olfactory GPCRs [4]): 1.047 and 1.146 and 1.063 and 1.471
